The text below walks through data of patent US20240287052A1, “NOVEL OXAZOLE DERIVATIVE AND PHARMACEUTICAL COMPOSITION FOR PREVENTING OR TREATING ALLERGIC DISEASES COMPRISING THE SAME” (AZCURIS CO., LTD., priority 2021, published 2024).

Like-named read-outs stand apart in the source and are kept apart here.

The term inhibition denotes the relative decrease from the control value, in per cent.

In the experiment the target is T1, IL33 and ST2 binding (Homo sapiens, UniProt O95760).
T1 sequence (O95760 112-270 limits assumed): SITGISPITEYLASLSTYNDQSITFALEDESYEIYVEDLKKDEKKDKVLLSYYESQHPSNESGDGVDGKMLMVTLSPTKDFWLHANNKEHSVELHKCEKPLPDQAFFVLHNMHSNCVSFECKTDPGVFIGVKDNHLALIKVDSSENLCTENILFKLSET
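Note: plate ELISA with coated Flag-tagged human IL-33 and His-tagged human ST2, bound ST2 detected by anti-His HRP and TMB absorbance at 450 nm, 2 h compound incubation.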

Method: 100 nM of Flag tagged IL-33 human recombinant protein was prepared in 1× coating buffer (Biolegend) and placed in a 96 well microplate (Coming) using a Multichannel pipette (Gilson) and coated for at least 12 hours at 4° C.
After washing three times with PBST (1×PBS (Welgene), 1% Tween 20 (sigma)), it was reacted with 1% BSA (Bovogen) blocking buffer for 1 hour at room temperature.
Samples containing 200 nM of His-tagged ST2 human recombinant protein and 60 μM or 200 μM Example synthetic compounds were prepared, added in equal volumes, and reacted for at least 2 hours at room temperature.
After washing three times with PBST (1×PBS (Welgene), 1% Tween 20 (sigma)), anti-His HRP (BioLegend) antibody was diluted 5000:1 and reacted for at least 1 hour at room temperature.
After washing three times with PBST (1×PBS (Welgene), 1% Tween 20 (sigma)), TMB substrate solution (Thermo) was added and reacted for more than 5 minutes. The reaction was stopped by adding 1 N HCl (Samchun) and the absorbance value was obtained at 450 nm after orbital shaking for 5 s with a Microplate reader (Tecan, Spark®).
The results derived from the program linked to the microplate reader were analyzed using an Excel program. IL33-ST2 binding rate (binding %) was calculated by averaging the three values obtained in triplicate, subtracting the positive control value, and converting the negative control value to 100%. The inhibition % value of each compound was obtained by subtracting the IL33-ST2 binding % from 100%, and the error range of triplicate was also obtained and reflected in the inhibition graph of the compound.

On to `O=C(c1nc(-c2ccc(C(F)(F)F)cc2)oc1-c1ccccc1[N+](=O)[O-])N1CCOCC1` [Compound 156, Morpholino(5-(2-nitrophenyl)-2-(4-(trifluoromethyl)phenyl)oxazol-4-yl)methanone], for which the inhibition was -1% (30 µM) and 41% (100 µM).

For `O=C(NCCCN1CCOCC1)c1nc(-c2ccc(C(F)(F)F)cc2)oc1-c1ccccc1[N+](=O)[O-]` [Compound 157, N-(3-Morpholinopropyl)-5-(2-nitrophenyl)-2-(4-(trifluoromethyl)phenyl)oxazole-4-carboxamide], the inhibition is, setting by setting: (30 µM) 22%; (100 µM) 15%.

For the compound `O=C(NCC1CCCO1)c1nc(-c2ccc(C(F)(F)F)cc2)oc1-c1ccccc1[N+](=O)[O-]` (stereo not shown) [Compound 159, 5-(2-Nitrophenyl)-N-((tetrahydrofuran-2-yl)methyl)-2-(4-(trifluoromethyl)phenyl)oxazole-4-carboxamide], the inhibition (30 µM) worked out at 2% and the inhibition (100 µM) is -1%.

Consider `COCCNC(=O)c1nc(-c2ccc(C(F)(F)F)cc2)oc1-c1ccccc1[N+](=O)[O-]` [Compound 160, N-(2-Methoxyethyl)-5-(2-nitrophenyl)-2-(4-(trifluoromethyl)phenyl)oxazole-4-carboxamide], for which the inhibition stood at 18% (30 µM) and 29% (100 µM).

In the case of `O=C(c1nc(-c2ccc(C(F)(F)F)cc2)oc1-c1ccccc1[N+](=O)[O-])N1CCC(O)CC1` [Compound 161, (4-Hydroxypiperidin-1-yl)(5-(2-nitrophenyl)-2-(4-(trifluoromethyl)phenyl)oxazol-4-yl)methanone], the inhibition is -16% (30 µM) and -11% (100 µM).

Turning to `O=C(c1ccc(N2CCCCC2)cc1)c1nc(-c2ccc(C(F)(F)F)cc2)oc1-c1ccccc1[N+](=O)[O-]` [Compound 162, (5-(2-Nitrophenyl)-2-(4-(trifluoromethyl)phenyl)oxazol-4-yl)(4-(piperidin-1-yl)phenyl)methanone], the inhibition by setting is: (30 µM) 3%; (100 µM) 5%.

In the case of `CCOC(=O)N1CCN(C(=O)c2nc(-c3ccc(C(F)(F)F)cc3)oc2-c2ccccc2[N+](=O)[O-])CC1` [Compound 163, Ethyl 4-(5-(2-nitrophenyl)-2-(4-(trifluoromethyl)phenyl)oxazole-4-carbonyl)piperazine-1-carboxylate], the inhibition was -30% (30 µM) and -19% (100 µM).

For the compound `O=C(NCc1ccccc1)c1nc(-c2ccc(C(F)(F)F)cc2)oc1-c1ccccc1[N+](=O)[O-]` [Compound 164, N-Benzyl-5-(2-nitrophenyl)-2-(4-(trifluoromethyl)phenyl)oxazole-4-carboxamide], the inhibition came out at 9% (30 µM) and 4% (100 µM).

In the case of `O=C(Nc1ccc(OCc2ccccc2)cc1)c1nc(-c2ccc(C(F)(F)F)cc2)oc1-c1ccccc1[N+](=O)[O-]` [Compound 165, N-(4-(Benzyloxy)phenyl)-5-(2-nitrophenyl)-2-(4-(trifluoromethyl)phenyl)oxazole-4-carboxamide], the inhibition stood at 10% (30 µM) and 13% (100 µM).

Turning to `COc1ccc(CNC(=O)c2nc(-c3ccc(C(F)(F)F)cc3)oc2-c2ccccc2[N+](=O)[O-])cc1` [Compound 166, N-(4-Methoxybenzyl)-5-(2-nitrophenyl)-2-(4-(trifluoromethyl)phenyl)oxazole-4-carboxamide], the inhibition runs as follows: (30 µM) 14%; (100 µM) 5%.

On to `CC(C)N(CCN1CCN(C(=O)c2nc(-c3ccc(C(F)(F)F)cc3)oc2-c2ccccc2[N+](=O)[O-])CC1)C(C)C` [Compound 167, (4-(2-(Diisopropylamino)ethyl)piperazin-1-yl)(5-(2-nitrophenyl)-2-(4-(trifluoromethyl)phenyl)oxazol-4-yl)methanone], for which the inhibition runs as follows: (30 µM) -24%; (100 µM) -9%.

On to `CC(C)N1CCN(C(=O)c2nc(-c3ccc(C(F)(F)F)cc3)oc2-c2ccccc2[N+](=O)[O-])CC1` [Compound 168, (4-Isopropylpiperazin-1-yl)(5-(2-nitrophenyl)-2-(4-(trifluoromethyl)phenyl)oxazol-4-yl)methanone], for which the inhibition was 12% (30 µM) and -12% (100 µM).

`O=C(c1nc(-c2ccc(C(F)(F)F)cc2)oc1-c1ccccc1[N+](=O)[O-])N1CCN(CCO)CC1` [Compound 169, (4-(2-Hydroxyethyl)piperazin-1-yl)(5-(2-nitrophenyl)-2-(4-(trifluoromethyl)phenyl)oxazol-4-yl)methanone]: the inhibition by setting is: (30 µM) -4%; (100 µM) 7%.

On to `O=C(c1nc(-c2ccc(C(F)(F)F)cc2)oc1-c1ccccc1[N+](=O)[O-])N1CCN(CCN2CCCC2)CC1` [Compound 170, (5-(2-Nitrophenyl)-2-(4-(trifluoromethyl)phenyl)oxazol-4-yl)(4-(2-(pyrrolidin-1-yl)ethyl)piperazin-1-yl)methanone], for which the inhibition (30 µM) came out at 3% and the inhibition (100 µM) is 2%.

On to `CC(C)(C)OC(=O)N1CCN(CCNC(=O)c2nc(-c3ccc(C(F)(F)F)cc3)oc2-c2ccccc2[N+](=O)[O-])CC1` [Compound 172, tert-Butyl-4-(2-(5-(2-nitrophenyl)-2-(4-(trifluoromethyl)phenyl)oxazole-4-carboxamido)ethyl)piperazine-1-carboxylate], for which the inhibition came out at 51% (30 µM) and 50% (100 µM).

For the compound `O=C(NCCN1CCCCC1)c1nc(-c2ccc(C(F)(F)F)cc2)oc1-c1ccccc1[N+](=O)[O-]` [Compound 173, 5-(2-Nitrophenyl)-N-(2-(piperidin-1-yl)ethyl)-2-(4-(trifluoromethyl)phenyl)oxazole-4-carboxamide], the inhibition turned out to be 54% (30 µM) and 60% (100 µM).

With `CC(=O)Nc1ccc(NC(=O)c2nc(-c3ccc(C(F)(F)F)cc3)oc2-c2ccccc2[N+](=O)[O-])cc1` [Compound 175, N-(4-Acetamidophenyl)-5-(2-nitrophenyl)-2-(4-(trifluoromethyl)phenyl)oxazole-4-carboxamide], the inhibition is 27% (30 µM) and 53% (100 µM).

As for `O=C(NCCc1ccc(O)cc1)c1nc(-c2ccc(C(F)(F)F)cc2)oc1-c1ccccc1[N+](=O)[O-]` [Compound 176, N-(4-Hydroxyphenethyl)-5-(2-nitrophenyl)-2-(4-(trifluoromethyl)phenyl)oxazole-4-carboxamide], the inhibition turned out to be 27% (30 µM) and 36% (100 µM).

`CN(C)CCNC(=O)c1nc(-c2cccc(OC(F)(F)F)c2)oc1-c1ccccc1` [Compound 199, N-(2-(Dimethylamino)ethyl)-5-phenyl-2-(3-(trifluoromethoxy)phenyl)oxazole-4-carboxamide]: the inhibition was found to be 7% (30 µM) and 2% (100 µM).

As to `CN1CCN(CCNC(=O)c2nc(-c3cccc(OC(F)(F)F)c3)oc2-c2ccccc2)CC1` [Compound 200, N-(2-(4-Methylpiperazin-1-yl)ethyl)-5-phenyl-2-(3-(trifluoromethoxy)phenyl)oxazole-4-carboxamide], the inhibition runs as follows: (30 µM) 5%; (100 µM) 0%.

As for `CN(C)CCNC(=O)c1nc(-c2cccc(OC(F)(F)F)c2)oc1-c1ccccc1[N+](=O)[O-]` [Compound 201, N-(2-(Dimethylamino)ethyl)-5-(2-nitrophenyl)-2-(3-(trifluoromethoxy)phenyl)oxazole-4-carboxamide], the inhibition by setting is: (30 µM) -7%; (100 µM) -5%.

Turning to `CN1CCN(CCNC(=O)c2nc(-c3cccc(OC(F)(F)F)c3)oc2-c2ccccc2[N+](=O)[O-])CC1` [Compound 202, N-(2-(4-Methylpiperazin-1-yl)ethyl)-5-(2-nitrophenyl)-2-(3-(trifluoromethoxy)phenyl)oxazole-4-carboxamide], the inhibition reads like this: (30 µM) 7%; (100 µM) 32%.

Take `CN1CCN(CCNC(=O)c2nc(-c3ccc(OC(F)(F)F)cc3)oc2-c2ccccc2)CC1` [Compound 204, N-(2-(4-Methylpiperazin-1-yl)ethyl)-5-phenyl-2-(4-(trifluoromethoxy)phenyl)oxazole-4-carboxamide]: the inhibition was 1% (30 µM) and 36% (100 µM).

Turning to `CN(C)CCNC(=O)c1nc(-c2ccc(OC(F)(F)F)cc2)oc1-c1ccccc1[N+](=O)[O-]` [Compound 205, N-(2-(Dimethylamino)ethyl)-5-(2-nitrophenyl)-2-(4-(trifluoromethoxy)phenyl)oxazole-4-carboxamide], the inhibition reads like this: (30 µM) -11%; (100 µM) 4%.

For `CN1CCN(CCNC(=O)c2nc(-c3ccc(OC(F)(F)F)cc3)oc2-c2ccccc2[N+](=O)[O-])CC1` [Compound 206, N-(2-(4-methylpiperazin-1-yl)ethyl)-5-(2-nitrophenyl)-2-(4-(trifluoromethoxy)phenyl)oxazole-4-carboxamide], the inhibition (30 µM) was found to be 23% and the inhibition (100 µM) was found to be 49%.

With `COc1cccc(-c2nc(C(=O)NCCN(C)C)c(-c3ccccc3)o2)c1` [Compound 208, N-(2-(Dimethylamino)ethyl)-2-(3-methoxyphenyl)-5-phenyloxazole-4-carboxamide], the inhibition was 19% (30 µM) and 55% (100 µM).

Turning to `COc1cccc(-c2nc(C(=O)NCCN(C)C)c(-c3ccccc3[N+](=O)[O-])o2)c1` [Compound 210, N-(2-(Dimethylamino)ethyl)-2-(3-methoxyphenyl)-5-(2-nitrophenyl)oxazole-4-carboxamide], the inhibition (30 µM) was -11% and the inhibition (100 µM) is -19%.

In the case of `COc1cccc(-c2nc(C(=O)NCCN3CCN(C)CC3)c(-c3ccccc3[N+](=O)[O-])o2)c1` [Compound 211, 2-(3-methoxyphenyl)-N-(2-(4-methylpiperazin-1-yl)ethyl)-5-(2-nitrophenyl)oxazole-4-carboxamide], the inhibition was 13% (30 µM) and 20% (100 µM).

As for `COc1ccc(-c2nc(C(=O)NCCN(C)C)c(-c3ccccc3)o2)cc1` [Compound 212, N-(2-(Dimethylamino)ethyl)-2-(4-methoxyphenyl)-5-phenyloxazole-4-carboxamide], the inhibition is -26% (30 µM) and -22% (100 µM).
